Here are results for nine substances from article PMC2628309 (Journal of the American Chemical Society, 2008).

The Kd is the concentration at which binding is half-saturated. By IC50 is commonly meant the point on the concentration scale where inhibition reaches its midpoint. Broadly, the Ki is a dissociation constant, usually derived from enzyme kinetics or from competition with a known ligand.

Like-named read-outs stand apart in the source and are kept apart here.

In one test the target is SH2 domain. As to conditions: validated SH2 domain ligand; cited from earlier work.
The target of test [1] is T1, Src tyrosine kinase (Homo sapiens, UniProt P12931). The experiment in a line: Src kinase inhibition. It is filed as biochemical.
In test [2] the target is T1, Src tyrosine kinase. As to conditions: cited from earlier work.
[3] abbreviates: Table 1, Src inhibitors, pre-photolysis.

Take Ac-pTyrGluGluIle-amide: the Kd on SH2 domain was 1000 to 5000 nM. In the test with Src tyrosine kinase [1] (setting [3]), “Ba-EEEIFGE-II-Dap(Hna)-βA3-pYEEIEX [Compound 7]” displayed a half-maximal inhibitory concentration (IC50) of 220 ± 10 nM. Still for that read-out and setting: in the case of “Ba-EEEIFGE-III-Dap(Hna)-βA3-pY-III-EIEX [Compound 9]” it was 7500 nM. On to “Ba-EEEIFGEF-Dap(Hna)-βA3-pYEEIEX [Compound 1]”, for which, on Src tyrosine kinase [2], the IC50 is 36 ± 2 nM and the inhibition constant (Ki) is 26 ± 4 nM. “Ba-EEEIFGEF-Dap(Hna)-βA-I-βA-pYEEIEX [Compound 4]”: the IC50 against Src tyrosine kinase [1] (setting [3]) came to 115 ± 9 nM. “Ba-EEEIFGEF-Dap(Hna)-βA-II-βA-pYEEIEX [Compound 5]” had an IC50 at Src tyrosine kinase [1] (setting [3]) of 38 ± 4 nM. Same read-out and setting: in the case of “Ba-EEEIFGEF-Dap(Hna)-βA-III-βA-pY-III-EIEX [Compound 10]” it was 1600 nM. Take “Ba-EEEIFGEF-Dap(Hna)-βA-III-βA-pYEEIEX [Compound 6]”: the “Src kinase activity in the presence of inhibitor” value at Src tyrosine kinase [1] (1.9 μM inhibitor, no irradiation) is given as “completely blocked”. Moreover, the IC50 on Src tyrosine kinase [1] (setting [3]) worked out at 18 ± 5 nM; on Src tyrosine kinase [1] (in the presence of 320 μM Ac-pTyrGluGluIle-amide (SH2 ligand competition)), 325 ± 60 nM. In the test with Src tyrosine kinase [1] (setting [3]), “Ba-EEEIFGEF-Dap(Hna)C-III-βA-pYEEIE-NH2 [Compound 11]” yielded an IC50 of 56 ± 4 nM.
